Results reported in ChEMBL document CHEMBL4814071, “Synthesis and antibacterial study of cell-penetrating peptide conjugated trifluoroacetyl and thioacetyl lysine modified peptides” (Eur J Med Chem, 2021).
Where a name gives a salt, the structure may show the parent alone. Activity calls are given as the source filed them. The rule behind the calls is not given here. *1 amine or outer side, *2 acyl side, *3 side chain or, on linkers, in order; H or OH if unused. Where a SMILES comes first, the peptide text is derived from it. Side-chain parts run from the residue outwards. The star is where a group is joined. NH(2-Me-phenyl) = Cc1ccccc1N*; CO = O=C([*:1])[*:2]; Tfa = O=C(C(F)(F)F)*

Legend:
Staphylococcus aureus [1] = assay: Antibacterial activity against Staphylococcus aureus assessed as reduction in microbial growth after 24 hrs by microplate reader method; format: functional
Escherichia coli [2] = assay: Antibacterial activity against Escherichia coli assessed as reduction in microbial growth after 24 hrs by microplate reader method; format: functional
Pseudomonas aeruginosa [3] = assay: Antibacterial activity against Pseudomonas aeruginosa assessed as reduction in microbial growth after 24 hrs by microplate reader method; format: functional
Escherichia coli [4] = assay: Antibacterial activity against Escherichia coli assessed as reduction in microbial growth after 24 hrs in presence of polymyxin B by microplate reader method; format: functional
Escherichia coli [5] = assay: Synergistic antibacterial activity against Escherichia coli assessed as fractional inhibitory concentration index incubated for 24 hrs in presence of Polymyxin B; format: functional
Cell membrane [6] = assay: Disruption of membrane integrity in Staphylococcus aureus at 2 times MIC measured after 20 mins by SEM analysis
Lipid bilayer [7] = assay: Binding affinity to bacterial inner membrane mimic POPE/POPG (3:1) LUVs assessed as increase in intensity by one-dimensional 19F NMR based analysis
Staphylococcus aureus [8] = assay: Antibacterial activity against Staphylococcus aureus assessed as reduction in microbial growth after 24 hrs in presence of streptomycin by microplate reader method; format: functional
Staphylococcus aureus [9] = assay: Antibiofilm activity against Staphylococcus aureus assessed as inhibition of biofilm formation incubated for 48 hrs by crystal violet staining assay; format: functional
Cell membrane [10] = assay: Disruption of membrane integrity in Escherichia coli at 2 times MIC measured after 20 mins by SEM analysis
Cell membrane [11] = assay: Disruption of membrane integrity in Escherichia coli at 2 times MIC by TEM analysis
BE(2)-C = assay: Cytotoxicity against human BE(2)-C cells assessed as reduction in cell viability incubated for 48 hrs by MTT assay; format: cell-based
Staphylococcus aureus [12] = assay: Antibiofilm activity against Staphylococcus aureus assessed as biofilm eradication at 2XMBEC incubated for 12 hrs by SYTO9/PI staining based microscopic analysis; format: functional, organism-based
Staphylococcus aureus [13] = assay: Potentiation of streptomycin-induced antibacterial activity against Staphylococcus aureus assessed as fold change in streptomycin MIC incubated for 24 hrs by microplate reader method; format: functional
[14] = Hemolytic activity against mouse RBC at 1000 uM measured after 1 hr by microplate reader analysis; format: cell-based, Erythrocyte; conditions: mouse red blood cells (erythrocytes), read-out: Activity
Escherichia coli [15] = assay: Antibiofilm activity against Escherichia coli assessed as biofilm eradication at 2XMBEC incubated for 12 hrs by SYTO9/PI staining based microscopic analysis; format: functional, organism-based
[16] = molecular target: NAD-dependent histone deacetylase SIR2 (Saccharomyces cerevisiae S288c) (UniProt P06700); assay: Inhibition of yeast sirtuin2-mediated Ura3 transcriptional silencing at telomeric locus assessed as yeast killing at 50 uM incubated for 72 hrs in presence of FOA by absorbance based analysis
Lipid bilayer [17] = assay: Binding affinity to bacterial inner membrane mimic DOPE/DOPG (3:1) large unilamellar vesicles assessed as calcein leakage at 2.5 uM by fluorescence based assay
Escherichia coli [18] = assay: Potentiation of polymyxin B-induced antibacterial activity against Escherichia coli assessed as polymyxin B MIC incubated for 24 hrs by microplate reader method; format: functional
HeLa = assay: Cytotoxicity against human HeLa cells assessed as reduction in cell viability incubated for 48 hrs by MTT assay; format: cell-based
Lipid bilayer [19] = assay: Binding affinity to mammalian membrane mimic DOPC/40% cholesterol assessed as calcein leakage at 20 uM by fluorescence based assay; format: ADME
Pseudomonas aeruginosa [20] = assay: Synergistic antibacterial activity against Pseudomonas aeruginosa assessed as fractional inhibitory concentration index incubated for 24 hrs in presence of Polymyxin B; format: functional
[21] = Inhibition of transcriptional machinery using Puc19-lacCONS plasmid DNA and Escherichia coli RNA polymerase-sigma70 holoenzyme at 10 uM incubated for 35 mins followed by NTP addition for 30 mins by spectrofluorometer analysis; format: functional; conditions: time 65.0 min
Escherichia coli [22] = assay: Antibiofilm activity against Escherichia coli assessed as as inhibition of biofilm formation incubated for 48 hrs by crystal violet staining assay; format: functional
Lipid bilayer [23] = assay: Binding affinity to bacterial inner membrane mimic DOPE/DOPG (3:1) large unilamellar vesicles assessed as calcein leakage at 20 uM by fluorescence based assay
Staphylococcus aureus [24] = assay: Potentiation of streptomycin-induced antibacterial activity against Staphylococcus aureus assessed as streptomycin MIC incubated for 24 hrs by microplate reader method; format: functional
Pseudomonas aeruginosa [25] = assay: Antibacterial activity against Pseudomonas aeruginosa assessed as reduction in microbial growth after 24 hrs in presence of polymyxin B by microplate reader method; format: functional
Cell membrane [26] = assay: Disruption of membrane integrity in Staphylococcus aureus at 2 times MIC by TEM analysis
Escherichia coli [27] = assay: Antibiofilm activity against Escherichia coli assessed as biofilm eradication incubated for 24 hrs by crystal violet staining assay; format: functional
Pseudomonas aeruginosa [28] = assay: Potentiation of polymyxin B-induced antibacterial activity against Pseudomonas aeruginosa assessed as polymyxin B MIC incubated for 24 hrs by microplate reader method; format: functional
Staphylococcus aureus [29] = assay: Antibiofilm activity against Staphylococcus aureus assessed as biofilm eradication incubated for 24 hrs by crystal violet staining assay; format: functional
Cell membrane [30] = assay: Disruption of membrane integrity in Escherichia coli assessed as cellular leakage at 2 times MIC by TEM analysis
Staphylococcus aureus [31] = assay: Synergistic antibacterial activity against Staphylococcus aureus assessed as fractional inhibitory concentration index incubated for 24 hrs in presence of streptomycin; format: functional
[32] = Induction of yeast killing at 50 uM incubated for 72 hrs in presence of Ura3 and absence of FOA by absorbance based analysis; conditions: saccharomyces cerevisiae

NAD-dependent histone deacetylase SIR2 (Saccharomyces cerevisiae S288c), sequence (P06700 whole entry): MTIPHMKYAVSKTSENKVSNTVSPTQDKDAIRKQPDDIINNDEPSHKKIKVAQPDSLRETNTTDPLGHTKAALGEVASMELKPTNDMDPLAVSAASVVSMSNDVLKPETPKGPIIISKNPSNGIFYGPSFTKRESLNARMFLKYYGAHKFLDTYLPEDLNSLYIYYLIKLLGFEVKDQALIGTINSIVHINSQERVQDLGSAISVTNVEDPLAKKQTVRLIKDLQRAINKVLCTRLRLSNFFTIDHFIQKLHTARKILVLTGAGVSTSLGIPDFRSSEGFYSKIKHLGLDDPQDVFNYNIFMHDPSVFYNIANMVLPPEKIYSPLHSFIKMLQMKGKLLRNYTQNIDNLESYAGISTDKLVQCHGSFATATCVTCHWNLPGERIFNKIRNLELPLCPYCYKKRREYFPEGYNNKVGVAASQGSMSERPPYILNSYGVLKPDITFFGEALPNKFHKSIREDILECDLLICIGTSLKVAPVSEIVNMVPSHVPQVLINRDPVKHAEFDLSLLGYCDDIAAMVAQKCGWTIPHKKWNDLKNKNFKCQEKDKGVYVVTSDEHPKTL

SMILES | MIC (Staphylococcus aureus [1]) [µM] | MIC (Escherichia coli [2]) [µM] | MIC (Pseudomonas aeruginosa [3]) [µM] | MIC (Escherichia coli [4]) [µM] | fractional inhibitory concentration index (FICI) (Escherichia coli [5]) | Activity (Cell membrane [6]) | Activity (Lipid bilayer [7]) | MIC (Staphylococcus aureus [8]) [µM] | MBIC (Staphylococcus aureus [9]) [µM] | Activity (Cell membrane [10]) | Activity (Cell membrane [11]) | IC50 (BE(2)-C) [µM] | Activity (Staphylococcus aureus [12]) | fold change (FC) (Staphylococcus aureus [13]) | hemolysis at 1 h, 1000 µM [14] [%] | Activity (Escherichia coli [15]) | inhibition [16] | Activity (Lipid bilayer [17]) [%] | MIC (Escherichia coli [18]) [µM] | IC50 (HeLa) [µM] | also measured
CN[C@@H]1[C@H](O[C@H]2[C@H](O[C@H]3[C@H](O)[C@@H](O)[C@H](N=C(N)N)[C@@H](O)[C@@H]3N=C(N)N)O[C@@H](C)[C@]2(O)C=O)O[C@@H](CO)[C@H](O)[C@H]1O [STREPTOMYCIN] | 2.2 |  |  |  |  |  |  |  |  |  |  |  |  |  |  |  |  |  |  |  | 
CC(=O)N[C@@H](Cc1ccc(O)cc1)C(=O)NCC(=O)N[C@@H](CCCNC(=N)N)C(=O)N[C@@H](CCCCN)C(=O)N[C@@H](CCCCN)C(=O)N[C@@H](CCCNC(=N)N)C(=O)N[C@@H](CCCNC(=N)N)C(=O)N[C@@H](CCC(N)=O)C(=O)N[C@@H](CCCNC(=N)N)C(=O)N[C@@H](CCCNC(=N)N)C(=O)N[C@@H](CCCNC(=N)N)C(=O)NCC(=O)NCC(=O)NCC(=O)N[C@@H](CCCCN)C(=O)NCC(=O)N[C@@H](CC(C)C)C(=O)N[C@@H](CCCNC(=N)N)C(=O)N[C@@H](CCCCNC(=O)Nc1ccccc1C)C(=O)N[C@@H](Cc1ccccc1)C(=O)NCC(=O)N[C@@H](C)C(=O)N[C@@H](CCCCN)C(=O)N[C@@H](CCCNC(=N)N)C(=O)N[C@@H](Cc1cnc[nH]1)C(=O)N[C@@H](CCCNC(=N)N)C(=O)N[C@@H](CS)C(=O)O (Ac-YGRKKRRQRRRGGGKGLRK([CO-NH(2-Me-phenyl)])FGAKRHRC-OH) | 0.2 | 1.5 | 25 |  |  |  |  |  |  |  |  |  |  |  |  |  |  |  |  |  | 
CC(=O)N[C@@H](Cc1ccc(O)cc1)C(=O)NCC(=O)N[C@@H](CCCNC(=N)N)C(=O)N[C@@H](CCCCN)C(=O)N[C@@H](CCCCN)C(=O)N[C@@H](CCCNC(=N)N)C(=O)N[C@@H](CCCNC(=N)N)C(=O)N[C@@H](CCC(N)=O)C(=O)N[C@@H](CCCNC(=N)N)C(=O)N[C@@H](CCCNC(=N)N)C(=O)N[C@@H](CCCNC(=N)N)C(=O)NCC(=O)NCC(=O)NCC(=O)N[C@@H](CCCCN)C(=O)NCC(=O)N[C@@H](CC(C)C)C(=O)N[C@@H](CCCNC(=N)N)C(=O)N[C@@H](CCCCNC(=O)C(F)(F)F)C(=O)N[C@@H](Cc1ccccc1)C(=O)NCC(=O)N[C@@H](C)C(=O)N[C@@H](CCCCNC(=O)C(F)(F)F)C(=O)N[C@@H](CCCNC(=N)N)C(=O)N[C@@H](Cc1cnc[nH]1)C(=O)N[C@@H](CCCNC(=N)N)C(=O)N[C@@H](CS)C(N)=O (Ac-YGRKKRRQRRRGGGKGLRK(Tfa)FGAK(Tfa)RHRC-NH2) | 0.2 | 1.5 | 25 | 0.63 | 0.73 | Active | Active | 0.05 | 0.8 | Active | Active | 23.4 | Active | 6 | < 5 | Active | Active | 90 | 0.1 | 31.6 | Activity (Lipid bilayer [19]): < 20%; fractional inhibitory concentration index (FICI) (Pseudomonas aeruginosa [20]): 0.3; inhibition [21]: 100%; MBIC (Escherichia coli [22]): 15.6 µM; Activity (Lipid bilayer [23]): Active; MIC (Staphylococcus aureus [24]): 0.38 µM; MIC (Pseudomonas aeruginosa [25]): 6.25 µM; Activity (Cell membrane [26]): Active; MBEC (Escherichia coli [27]): 62.5 µM; MIC (Pseudomonas aeruginosa [28]): 0.05 µM; MBEC (Staphylococcus aureus [29]): 3.2 µM; Activity (Cell membrane [30]): Active; fractional inhibitory concentration index (FICI) (Staphylococcus aureus [31]): 0.22
CC(=O)N[C@@H](Cc1ccc(O)cc1)C(=O)NCC(=O)N[C@@H](CCCNC(=N)N)C(=O)N[C@@H](CCCCN)C(=O)N[C@@H](CCCCN)C(=O)N[C@@H](CCCNC(=N)N)C(=O)N[C@@H](CCCNC(=N)N)C(=O)N[C@@H](CCC(N)=O)C(=O)N[C@@H](CCCNC(=N)N)C(=O)N[C@@H](CCCNC(=N)N)C(=O)N[C@@H](CCCNC(=N)N)C(=O)NCC(=O)NCC(=O)NCC(=O)N[C@@H](CCCCN)C(=O)NCC(=O)N[C@@H](CC(C)C)C(=O)N[C@@H](CCCNC(=N)N)C(=O)N[C@@H](CCCCNC(=O)C(F)(F)F)C(=O)N[C@@H](Cc1ccccc1)C(=O)NCC(=O)N[C@@H](C)C(=O)N[C@@H](CCCCN)C(=O)N[C@@H](CCCNC(=N)N)C(=O)N[C@@H](Cc1cnc[nH]1)C(=O)N[C@@H](CCCNC(=N)N)C(=O)N[C@@H](CS)C(=O)O (Ac-YGRKKRRQRRRGGGKGLRK(Tfa)FGAKRHRC-OH) | 0.2 | 1.5 | 25 | 0.63 | 0.73 | Active | Active | 0.05 | 0.8 | Active | Active | 17.4 | Active | 6 | < 5 | Active | Active | 90 | 0.1 | 20.2 | Activity [32]: Toxic; Activity (Lipid bilayer [19]): < 20%; fractional inhibitory concentration index (FICI) (Pseudomonas aeruginosa [20]): 0.42; inhibition [21]: 100%; MBIC (Escherichia coli [22]): 15.6 µM; Activity (Lipid bilayer [23]): Active; MIC (Staphylococcus aureus [24]): 0.38 µM; MIC (Pseudomonas aeruginosa [25]): 12.5 µM; Activity (Cell membrane [26]): Active; MBEC (Escherichia coli [27]): 62.5 µM; MIC (Pseudomonas aeruginosa [28]): 0.05 µM; MBEC (Staphylococcus aureus [29]): 3.2 µM; Activity (Cell membrane [30]): Active; fractional inhibitory concentration index (FICI) (Staphylococcus aureus [31]): 0.22
